{
  "source": "patent US12661353B2",
  "about": "“SPT5 inhibitors and uses thereof” (Yeda Research and Development Co. Ltd., priority 2020, dated 2026)",
  "key": {"[1]": {"tested_on": "pro-inflammatory genes A20, CCL20, IL6, IL8, CXCL2, JUNB and IEX1", "assay": "mRNA levels of pro-inflammatory genes under TNFα-induced conditions, HeLa, RT-qPCR", "assay_type": "cell-based, human", "conditions": "HeLa cells, SPI 1 hour then TNFα 1 hour", "protocol": "Cell culture—HEK293T, HeLa, MCF7, Jurkat and mouse embryonic fibroblasts (MEFs) cells were grown and maintained in Dulbecco's modified Eagle's medium supplemented with 10% fetal calf serum (Gibco) and 1% penicillin-streptomycin. To avoid NF-κB activity, HeLa cells were kept from reaching confluence and re-plated no more than 10 times following initial thawing. To induce NF-κB activity, cells were treated with […] recombinant human TNF-α (Peprotech) for the indicated times. STHdh Q111 and STHdh Q7 striatal cell lines (Coriell Institute for Medical Research) were grown in Dulbecco's modified Eagle's medium supplemented with 10% fetal calf serum (Gibco), 1% penicillin-streptomycin and 0.4 mg/ml G418 at 33° C. The cells were re-plated no more than 5-6 times, as recommended.\nRNA analysis—Total RNA was extracted using Tri-reagent (Bio-Lab Chemicals) and Direct-Zol™ RNA MiniPrep kit (Zymo Research). Following, cDNA was synthesized from […] of total RNA using a High-Capacity cDNA Reverse Transcription Kit (ABI, Thermo Fisher Scientific). cDNA samples were analyzed by quantitative PCR (qPCR) in a ViiA 7 Real-Time PCR System using Fast qPCRBIO SYBR Green Mix (PCR Biosystems).\nIn the next step, the effect of the identified SPIs on expression of the selected genes following NF-κB activation was analyzed. Specifically, Hela cells were pre-incubated with DMSO or SPI (50 μM or less) for 1 hour followed by treatment with TNFα for an additional 1 hour."}, "[2]": {"tested_on": "Spt5 activities", "assay": "Combined effects on the various Spt5 activities (summary of Examples 1-4)", "assay_type": "cell-based"}, "[3]": {"molecular_target": "T1, His-Spt5 (fused to Spt4) (Homo sapiens, UniProt O00267)", "T1 construct": "His-Rpb1 and His-Spt5 (fused to Spt4 to increase its stability) were each expressed in E. coli; Spt4 (fusion partner); His tag (N); made in house; host or cells: E. coli; purified on nickel agarose beads", "assay": "Binding assay by intrinsic fluorescence of purified His-Spt5 (fused to Spt4)", "protocol": "Binding assay—In order to measure binding of the indicated compound to Spt5 and/or Pol II; Spt5-Spt4 or Rpb1 fused to a histidine (His) tag were expressed in E. coli (SEQ ID Nos: 2-3, 5-6 and 81) and purified on nickel agarose beads as described in Ashkenazi et al. 2016. The proteins were incubated for 10 minutes with increasing concentrations of the indicated compound in a black 384 wells microplate in a total volume of 20 μl. Binding was assessed by measuring the changes in the intrinsic fluorescence (280 nm) using Cytation™ 5 (BioTek).\nTwo identified compounds, SPI-21 and SPI-18, were further validated for their direct interaction with either Spt5 or Rpb1 CC domain. […] Using the purified proteins, fluorescence intensity measurements were performed in the presence of increasing concentrations of SPI-21 or SPI-18. This method analyzes binding by monitoring the changes in the intrinsic fluorescence of the proteins as a consequence of conformational changes. […]\nDirect interaction with either the Spt5 or the Rpb1 CC domain of SPI-21 and SPI-18 was further validated. […] Using the purified proteins, fluorescence intensity measurements were performed in the presence of increasing concentrations of SPI-21 and SPI-18. This method analyzes binding by monitoring the changes in the intrinsic fluorescence of the proteins as a consequence of conformational changes. […]"}, "[4]": {"tested_on": "replication-dependent histone genes", "assay": "Histone gene levels after 24 hours, cDNA with random hexamers, qPCR", "assay_type": "cell-based, human", "protocol": "A schematic illustration of a histone gene structure is shown on the top. For polyA+ RNA analysis, cDNA was prepared with a poly-dT oligonucleotide. In each analysis the levels were normalized to GAPDH; and the bars present the mean of 3±SEM independent experiments. * P<0.05 relative to DMSO (vehicle control). […] The data represent the means±SEMs of 3 independent experiments. The asterisks denote statistically significant differences relative to DMSO; according to Student's t tests (typically one-tailed, paired): *p<0.05; **p<0.01; ***p<0.005.\nSince the RNA-seq following treatment with SPI-21 detects only polyadenylated transcripts and the treatment was effected for 2 hours, during which only a fraction of cells is in S-phase, an effect on histone genes was not found. Thus, to investigate further the regulation of histone genes by Spt5 using the identified SPIs, cells were treated for 24 hours with SPI-21 or SPI-18, to allow all cells to pass S-phase at least once. Following, mRNA was extracted and cDNA was prepared using random hexamers and the levels of 4 histone genes were determined. […] To this end, cDNA prepared by random hexamer and Poly-T the ratio between total and poly-A tailed histone genes was determined. […]"}},
  "data": [
    {"smiles": "Nc1ccccc1SC(CC(=O)c1cccs1)c1cccs1", "note": "(centres unmarked) [SPI-18]", "values": [
      {"measurement": "Down-regulating transcription of pro-inflammatory genes under TNFα induced conditions (i.e. inhibiting transcription elongation of pro-inflammatory genes induced by Spt5)", "setting": "[1]", "value": "+ (+ >50%)"},
      {"measurement": "classification by effect on the various Spt5 activities, in words", "setting": "[2]", "value": "inhibited mainly the positive activity of Spt5 with little or no effect on proximal promoter pausing"},
      {"measurement": "IC50", "setting": "[3]", "value": 40, "unit": "µM"},
      {"measurement": "expression of the selected histone genes", "setting": "[4]", "value": "diminished expression of the selected histone genes"}
    ]},
    {"smiles": "COc1ccc(C=CC(=O)c2cc(O)ccc2O)cc1", "note": "[SPI-21]", "values": [
      {"measurement": "Down-regulating transcription of pro-inflammatory genes under TNFα induced conditions (i.e. inhibiting transcription elongation of pro-inflammatory genes induced by Spt5)", "setting": "[1]", "value": "+++ (+++ represent >80% inhibition)"},
      {"measurement": "classification by effect on the various Spt5 activities, in words", "setting": "[2]", "value": "affect all the tested Spt5 activities"},
      {"measurement": "effect on intrinsic fluorescence of Spt5", "setting": "[3]", "value": "no significant effect"},
      {"measurement": "expression of the selected histone genes", "setting": "[4]", "value": "diminished expression of the selected histone genes"}
    ]}
  ]
}
